The values that follow come from PubChem BioAssay (NCI).

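Growth conditions: 96-well plates. Treatment: test compound, 48 hours, 5 concentrations. Analysis: linear interpolation between bracketing concentrations; unreached endpoints set to highest concentration. TGI: concentration producing complete growth inhibition.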 Some results are limits rather than exact numbers.

Test systems include HL-60(TB) leukemia; LXFL 529 NSCLC; UACC-257 melanoma; NCI-H460 lung; EKVX NSCLC; OVCAR-8 ovarian; SF-268 CNS; ACHN renal; SK-MEL-2 melanoma; OVCAR-3 ovarian; SNB-75 CNS; NCI-H23 lung; UO-31 renal; SK-MEL-28 melanoma; IGROV1 ovarian; OVCAR-4 ovarian; SF-539 CNS; DU-145 prostate; CAKI-1 renal; LOX IMVI melanoma.
Common to all, as to test: inhibition of tumour cell growth, NCI panel, 48 h

With `Clc1ccc2c(c1)C1C(CO2)C(c2ccccc2)=NN1c1ccccc1` (configuration not stated), the TGI in the experiment with HL-60(TB) leukemia is 53.1 µM; in the experiment with LXFL 529 NSCLC, above 100 µM; in the experiment on UACC-257 melanoma it was above 100 µM; in the experiment with NCI-H460 lung, above 100 µM; in the experiment with EKVX NSCLC it was 68.6 µM; with OVCAR-8 ovarian, above 100 µM. The TGI is above 100 µM in the experiment on SF-268 CNS; above 100 µM in the experiment on ACHN renal; 75.4 µM in the experiment on SK-MEL-2 melanoma; above 100 µM in the experiment on OVCAR-3 ovarian; 82.9 µM in the experiment with SNB-75 CNS; 99.8 µM with NCI-H23 lung. Moreover, the TGI in the experiment with UO-31 renal is 53.9 µM; in the experiment on SK-MEL-28 melanoma, above 100 µM; in the experiment on IGROV1 ovarian, above 100 µM.

As for `CN(CCCCN1CCCC1)CCCN(C)C(=O)Cc1ccc(Cl)c(Cl)c1`, the TGI in the experiment on HL-60(TB) leukemia came out at 34.1 µM; with OVCAR-4 ovarian it was 53.8 µM; in the experiment on UACC-257 melanoma it was 13.5 µM; in the experiment with SF-539 CNS, 24.3 µM; with NCI-H460 lung, 39.8 µM; in the experiment with EKVX NSCLC, 37.6 µM. In addition, the TGI in the experiment on OVCAR-8 ovarian is above 100 µM; with SF-268 CNS, above 100 µM; with ACHN renal it was above 100 µM; with SK-MEL-2 melanoma, 22.5 µM; in the experiment with OVCAR-3 ovarian, 62.4 µM; in the experiment on SNB-75 CNS it was 47.5 µM. Moreover, the TGI was 37.7 µM in the experiment with NCI-H23 lung; 3.72 µM in the experiment on UO-31 renal; above 100 µM with DU-145 prostate; 49.6 µM with CAKI-1 renal; 3.51 µM with SK-MEL-28 melanoma; 45.2 µM with IGROV1 ovarian. The TGI in the experiment with LOX IMVI melanoma amounted to 27.9 µM.

In the case of `COc1ccc(C(=O)Cc2c(C(=O)c3ccccc3)c3ccccc3n2C(=O)c2ccccc2)cc1`, the TGI in the experiment with HL-60(TB) leukemia, in the experiment on LXFL 529 NSCLC, in the experiment on OVCAR-4 ovarian, in the experiment on UACC-257 melanoma, in the experiment with SF-539 CNS and with NCI-H460 lung was above 100 µM in each case. Moreover, the TGI in the experiment with OVCAR-8 ovarian is above 100 µM; with SF-268 CNS, above 100 µM; with ACHN renal, above 100 µM; with SK-MEL-2 melanoma, above 100 µM; with OVCAR-3 ovarian it was above 100 µM; with SNB-75 CNS, 99.6 µM. The TGI in the experiment on NCI-H23 lung, in the experiment on UO-31 renal, in the experiment on CAKI-1 renal, in the experiment with SK-MEL-28 melanoma and in the experiment with IGROV1 ovarian was above 100 µM throughout.

For the molecule `COC(=O)c1ccccc1C1CN=NC12Cc1ccc(C)c(C)c1C2=O` (configuration not stated), the TGI in the experiment with HL-60(TB) leukemia was 69.7 µM; with OVCAR-4 ovarian, above 100 µM; with UACC-257 melanoma it was above 100 µM; with SF-539 CNS, above 100 µM; in the experiment on NCI-H460 lung, above 100 µM; with EKVX NSCLC, above 100 µM. In addition, the TGI in the experiment with OVCAR-8 ovarian, in the experiment on SF-268 CNS, in the experiment on ACHN renal, in the experiment on SK-MEL-2 melanoma, with OVCAR-3 ovarian and in the experiment on SNB-75 CNS was above 100 µM each time. For the same molecule, the TGI with NCI-H23 lung, in the experiment with UO-31 renal, with DU-145 prostate, in the experiment with CAKI-1 renal, in the experiment on SK-MEL-28 melanoma and in the experiment on IGROV1 ovarian was above 100 µM throughout. The molecule also came in with a TGI in the experiment with LOX IMVI melanoma above 100 µM.

For `Cc1nc2ccc(S(=O)(=O)Nc3ccccc3)cc2c(=O)n1NC(=O)CNc1ccccc1`, the TGI in the experiment on HL-60(TB) leukemia, with OVCAR-4 ovarian, in the experiment on UACC-257 melanoma, with SF-539 CNS, with NCI-H460 lung and in the experiment on EKVX NSCLC was above 100 µM in each case. Besides, the TGI in the experiment on OVCAR-8 ovarian, in the experiment with SF-268 CNS, in the experiment on ACHN renal, with SK-MEL-2 melanoma, with OVCAR-3 ovarian and with SNB-75 CNS was above 100 µM in each case. The TGI in the experiment on NCI-H23 lung, in the experiment with UO-31 renal, in the experiment on DU-145 prostate, in the experiment with CAKI-1 renal, with SK-MEL-28 melanoma and in the experiment with IGROV1 ovarian was above 100 µM each time. Besides, the TGI in the experiment with LOX IMVI melanoma was above 100 µM.

With `COc1ccc(/C=C/C(=O)/C=C/c2ccc(OC)cc2)cc1`, the TGI in the experiment with HL-60(TB) leukemia is 53.7 µM; in the experiment with OVCAR-4 ovarian, above 100 µM; in the experiment with UACC-257 melanoma, 41.3 µM; in the experiment with SF-539 CNS it was 72.7 µM; in the experiment with NCI-H460 lung, above 100 µM; in the experiment on EKVX NSCLC, above 100 µM. Further, the TGI is 31.4 µM in the experiment on OVCAR-8 ovarian; above 100 µM in the experiment on SF-268 CNS; above 100 µM with ACHN renal; above 100 µM with SK-MEL-2 melanoma; above 100 µM in the experiment with OVCAR-3 ovarian; above 100 µM in the experiment with SNB-75 CNS. For the same molecule, the TGI with NCI-H23 lung, in the experiment on UO-31 renal, with DU-145 prostate, in the experiment on CAKI-1 renal, in the experiment on SK-MEL-28 melanoma and with IGROV1 ovarian was above 100 µM throughout. For the same molecule, the TGI in the experiment with LOX IMVI melanoma was above 100 µM.

For `C=CCN1C(=O)/C(=C/c2ccc(OC)cc2)NC1=S`, the TGI in the experiment on HL-60(TB) leukemia was 3.81 µM; in the experiment with OVCAR-4 ovarian, above 100 µM; in the experiment on UACC-257 melanoma, 78.3 µM; in the experiment with SF-539 CNS, above 100 µM; with NCI-H460 lung, above 100 µM; with EKVX NSCLC it was 58.7 µM. For the same molecule, the TGI in the experiment with OVCAR-8 ovarian, in the experiment on SF-268 CNS, in the experiment with ACHN renal, with SK-MEL-2 melanoma, in the experiment on OVCAR-3 ovarian and with SNB-75 CNS was above 100 µM throughout. Also, the TGI in the experiment on NCI-H23 lung, in the experiment on UO-31 renal, in the experiment on DU-145 prostate, in the experiment on CAKI-1 renal, in the experiment on SK-MEL-28 melanoma and with IGROV1 ovarian was above 100 µM in each case. This molecule showed a TGI in the experiment on LOX IMVI melanoma above 100 µM.
